pEC50: −log10 of the molar value.
Tests used:
[1] = test system: PMN's (polymorphonuclear leukocytes); experiment: Neutrophil oxidative burst; format: cell-based; settings: Leukocyte, 40 min, read-out: Neutrophil oxidative burst Rel EC50 range, PMN from buffy coats, 40 min at RT, hydroethidine fluorescence; normalized to 5×10^−7 M PEP0005
Protocol: PMN's (polymorphonuclear leukocytes) were isolated and purified from fresh buffy coats by sequential sedimentation, density centrifugation and lysis of contaminating erythrocytes. Buffy coats were incubated with 2% methocel for 30-45 min to differentially sediment red blood cells. The leukocyte-rich supernatant was transferred to lymphoprep tubes to remove mononuclear cells by density centrifugation (400×g, 30 min). The pellet was resuspended and any remaining erythrocytes lysed using 0.2% NaCl for 30 sec before restoring isotonicity by the addition of 1.2% NaCl. This step was repeated until the cell pellet appears relatively free of red blood cells. Cells were resuspended in DPBS (Dulbecco's Phosphate Buffered Saline) (w.o. Ca^2+, Mg^2+) and the concentration adjusted to 1.4×10^6 cells/ml in HBSS (Hanks Balanced Salt solution) (w Ca^2+, Mg^2±) containing 0.1% BSA (Bovine Serum Albumin) and 5 mM glucose just prior to assay initiation. Titrated reference and test compounds were pre-mixed with HE (Hydroethidine) (10 μM final assay concentration) before addition to 96-well plates containing 2.5×10^5 cells. Following 40 min incubation at RT, changes in the respiratory burst was estimated by measuring fluorescence at 579 nm (excitation: 485 nm) using an Envision plate reader.
Test compound titration curves were fitted to a four-parameter sigmoidal curve after normalizing the effect of the test compound to the effect of the positive control (5×10^−7 M PEP0005). Rel EC50 denotes the concentration of test compound producing an effect that is midway between the fitted top and bottom. Abs EC50 is the concentration of test compound that provokes a response corresponding to 50% of the maximal effect associated with the positive control (5×10^−7 M PEP0005).

[2] = test system: HeLa cells; experiment: Necrosis assay; format: cell-based; settings: Homo sapiens, HeLa, 0.5 h, read-out: HeLa necrosis EC50 range
Protocol: HeLa cells (ATCC CCL-002) were grown in minimal essential medium (Invitrogen catalog no. 42360) containing 10% fetal bovine serum, 100 IU/ml penicillin and 100 μg/ml streptomycin. 4,000-6,000 cells were seeded into 96-well black ViewPlates-plates, clear bottom, (Perkin Elmer) in 100 μl medium and incubated overnight. Compounds were dissolved and pre-diluted in DMSO in 96-well polypropylene plates (Greiner) in a concentration range of 15 μM to 600 μM. At the time of the experiment cell plates were placed on heating blocks at 37° C., medium was removed and 40 μl fresh, pre-warmed medium was added per well. Cells were incubated for 15 min before addition of compounds. In parallel, 3 μl of compounds were diluted with 197 μl growth medium on a Tecan freedom-EVO pipetting station using 250 μl/s pipetting speed, in order to ensure effective mixing of the highly concentrated compound solutions with the aqueous phase. These pre-dilution plates were then equilibrated on heating blocks at 37° C. for 10 min. 80 μl pre-diluted compound were transferred manually to the corresponding wells containing HeLa cells yielding compound concentrations of 10 μM to 400 μM. Control conditions were 1% DMSO in growth medium (100% viability) and 400 μM ingenol mebutate in growth medium (0% viability). Plates were incubated on the heating blocks at 37° C. for 30 min. At the end of the incubation 10 μl PrestoBlue reagent (Invitrogen) were added to each well, plates were sealed with black seal, followed by incubation at 37° C. for 10 min with gentle shaking (150 rpm). Subsequently, plates were placed at room temperature for 20-30 min. Plates were read immediately after on an Envision Fluorescence reader (Perkin Elmer) with excitation at 535 nm and emission at 630 nm. Test compound titration curves were fitted to a four-parameter sigmoidal curve after normalizing the effect of the test compound to the effect of the positive control (4 10^−4 M PEP0005/ingenol mebutate). AbsEC50 denotes the concentration of test compound producing 50% effect.

## CC1=C[C@]23C(=O)[C@@H](C=C(CO)[C@@H](O)[C@]2(O)[C@H]1OC(=O)C12CCC(C)(C(=O)O1)C2(C)C)[C@H]1[C@@H](C[C@H]3C)C1(C)C [Compound 503, Ingenol 3-(1S-camphanate)]
[1]
  pEC50: 7.00 to 7.70

## CC1=C[C@]23C(=O)[C@@H](C=C(CO)[C@@H](O)[C@]2(O)[C@H]1OC(=O)c1cc(-c2ccccc2)on1)[C@H]1[C@@H](C[C@H]3C)C1(C)C [Compound 511, Ingenol 3-(5-phenylisoxazole-3-carboxylate)]
[1]
  pEC50: 7.00 to 7.70
[2]
  pEC50: > 3.82

## CC1=C[C@]23C(=O)[C@@H](C=C(CO)[C@@H](O)[C@]2(O)[C@H]1OC(=O)c1nccc2ccccc12)[C@H]1[C@@H](C[C@H]3C)C1(C)C [Compound 512, Ingenol 3-(isoquinoline-1-carboxylate)]
[1]
  pEC50: 7.00 to 7.70
[2]
  pEC50: > 3.82

## CC1=C[C@]23C(=O)[C@@H](C=C(CO)[C@@H](O)[C@]2(O)[C@H]1OC(=O)c1ccnc2ccccc12)[C@H]1[C@@H](C[C@H]3C)C1(C)C [Compound 513, Ingenol 3-(quinoline-4-carboxylate)]
[1]
  pEC50: > 7.70
[2]
  pEC50: > 3.82

## CC1=C[C@]23C(=O)[C@@H](C=C(CO)[C@@H](O)[C@]2(O)[C@H]1OC(=O)c1cncn1-c1ccccc1)[C@H]1[C@@H](C[C@H]3C)C1(C)C [Compound 515, Ingenol 3-(3-phenylimidazole-4-carboxylate)]
[1]
  pEC50: > 7.70
[2]
  pEC50: > 3.82

## CC1=C[C@]23C(=O)[C@@H](C=C(CO)[C@@H](O)[C@]2(O)[C@H]1OC(=O)c1ncccc1Br)[C@H]1[C@@H](C[C@H]3C)C1(C)C [Compound 524, Ingenol 3-(3-bromopyridine-2-carboxylate)]
[1]
  pEC50: 7.00 to 7.70
[2]
  pEC50: 3.46 to 3.82

## CC1=C[C@]23C(=O)[C@@H](C=C(CO)[C@@H](O)[C@]2(O)[C@H]1OC(=O)c1c(C)nc2ccccn12)[C@H]1[C@@H](C[C@H]3C)C1(C)C [Compound 535, Ingenol 3-(2-methylimidazo[1,2-a]pyridine-3-carboxylate)]
[1]
  pEC50: > 7.70
[2]
  pEC50: 3.46 to 3.82

## CCn1c(C)cc(C)c1C(=O)O[C@H]1C(C)=C[C@]23C(=O)[C@@H](C=C(CO)[C@@H](O)[C@]12O)[C@H]1[C@@H](C[C@H]3C)C1(C)C [Compound 543, Ingenol 3-(1-ethyl-3,5-dimethylpyrrole-2-carboxylate)]
[1]
  pEC50: > 7.70
[2]
  pEC50: > 3.82

## CC1=C[C@]23C(=O)[C@@H](C=C(CO)[C@@H](O)[C@]2(O)[C@H]1OC(=O)[C@@H]1CCCN1c1ccccc1)[C@H]1[C@@H](C[C@H]3C)C1(C)C [Compound 545, Ingenol 3-((2S)-1-phenylpyrrolidine-2-carboxylate)]
[1]
  pEC50: 7.00 to 7.70
[2]
  pEC50: 3.46 to 3.82

## CC1=C[C@]23C(=O)[C@@H](C=C(CO)[C@@H](O)[C@]2(O)[C@H]1OC(=O)c1c(C)nn(CC2CCOCC2)c1C)[C@H]1[C@@H](C[C@H]3C)C1(C)C [Compound 561, Ingenol 3-(3,5-dimethyl-1-(tetrahydropyran-4-ylmethyl)pyrazole-4-carboxylate)]
[1]
  pEC50: 7.00 to 7.70
[2]
  pEC50: 3.46 to 3.82

## CC1=C[C@]23C(=O)[C@@H](C=C(CO)[C@@H](O)[C@]2(O)[C@H]1OC(=O)c1sc(=O)[nH]c1C)[C@H]1[C@@H](C[C@H]3C)C1(C)C [Compound 562, Ingenol 3-(4-methyl-2-oxo-3H-thiazole-5-carboxylate)]
[1]
  pEC50: 7.00 to 7.70
[2]
  pEC50: < 3.46

## CC1=C[C@]23C(=O)[C@@H](C=C(CO)[C@@H](O)[C@]2(O)[C@H]1OC(=O)c1noc(C)c1C)[C@H]1[C@@H](C[C@H]3C)C1(C)C [Compound 569, Ingenol 3-(4,5-dimethylisoxazole-3-carboxylate)]
[1]
  pEC50: 7.00 to 7.70
[2]
  pEC50: 3.46 to 3.82

## CCNC(=O)O[C@H]1C(C)=C[C@]23C(=O)[C@@H](C=C(CO)[C@@H](O)[C@]12O)[C@H]1[C@@H](C[C@H]3C)C1(C)C [Compound 701, Ingenol 3-(N-ethyl-carbamate)]
[1]
  pEC50: 7.00 to 7.70

## CC1=C[C@]23C(=O)[C@@H](C=C(CO)[C@@H](O)[C@]2(O)[C@H]1OC(=O)N(C)C(C)CC#N)[C@H]1[C@@H](C[C@H]3C)C1(C)C (stereo partly drawn) [Compound 715, Ingenol 3-(N-(2-cyano-1-methyl-ethyl)-N-methyl-carbamate)]
[1]
  pEC50: < 7.00
[2]
  pEC50: < 3.46

## CC1=C[C@]23C(=O)[C@@H](C=C(CO)[C@@H](O)[C@]2(O)[C@H]1OC(=O)N(C)c1cc(C)nn1C)[C@H]1[C@@H](C[C@H]3C)C1(C)C [Compound 719, Ingenol 3-(N-(2,5-dimethylpyrazol-3-yl)-N-methyl-carbamate)]
[1]
  pEC50: < 7.00
[2]
  pEC50: < 3.46

## CC1=C[C@]23C(=O)[C@@H](C=C(CO)[C@@H](O)[C@]2(O)[C@H]1OC(=O)N1CCC(=O)c2ccccc21)[C@H]1[C@@H](C[C@H]3C)C1(C)C [Compound 725, Ingenol 3-(4-oxo-2,3-dihydroquinoline-1-carboxylate)]
[1]
  pEC50: > 7.70
[2]
  pEC50: 3.46 to 3.82

## CC1=C[C@]23C(=O)[C@@H](C=C(CO)[C@@H](O)[C@]2(O)[C@H]1OC(=O)N(C)c1ccc(F)cc1)[C@H]1[C@@H](C[C@H]3C)C1(C)C [Compound 730, Ingenol 3-(N-(4-fluoro-phenyl)-N-methyl-carbamate)]
[2]
  pEC50: 3.46 to 3.82

## COc1ccccc1N(C)C(=O)O[C@H]1C(C)=C[C@]23C(=O)[C@@H](C=C(CO)[C@@H](O)[C@]12O)[C@H]1[C@@H](C[C@H]3C)C1(C)C [Compound 731, Ingenol 3-(N-methyl-N-(2-methoxy-phenyl)-carbamate)]
[1]
  pEC50: 7.00 to 7.70
[2]
  pEC50: 3.46 to 3.82

## CC1=C[C@]23C(=O)[C@@H](C=C(CO)[C@@H](O)[C@]2(O)[C@H]1OC(=O)N1CC(=O)Nc2ccccc21)[C@H]1[C@@H](C[C@H]3C)C1(C)C [Compound 733, Ingenol 3-(3-oxo-2,4-dihydroquinoxaline-1-carboxylate)]
[1]
  pEC50: < 7.00
[2]
  pEC50: 3.46 to 3.82

## CC1=C[C@]23C(=O)[C@@H](C=C(CO)[C@@H](O)[C@]2(O)[C@H]1OC(=O)N1CCCC1C(F)(F)F)[C@H]1[C@@H](C[C@H]3C)C1(C)C (stereo partly drawn) [Compound 735, Ingenol 3-(2-trifluoromethyl-pyrrolidine-1-carboxylate)]
[1]
  pEC50: > 7.70
[2]
  pEC50: 3.46 to 3.82

## CC1=C[C@]23C(=O)[C@@H](C=C(CO)[C@@H](O)[C@]2(O)[C@H]1OC(=O)N(C)C1CCN(C(=O)OC(C)(C)C)CC1)[C@H]1[C@@H](C[C@H]3C)C1(C)C [Compound 742, Ingenol 3-(N-methyl-N—(N-(tert-butyloxycarbonyl)-4-piperidyl)-carbamate)]
[1]
  pEC50: 7.00 to 7.70
[2]
  pEC50: 3.46 to 3.82

## CC1=C[C@]23C(=O)[C@@H](C=C(CO)[C@@H](O)[C@]2(O)[C@H]1OC(=O)N(C)C1CCC1)[C@H]1[C@@H](C[C@H]3C)C1(C)C [Compound 749, Ingenol 3-(N-cyclobutyl-N-methyl-carbamate)]
[1]
  pEC50: > 7.70
[2]
  pEC50: < 3.46

## C=CCN(C)C(=O)O[C@H]1C(C)=C[C@]23C(=O)[C@@H](C=C(CO)[C@@H](O)[C@]12O)[C@H]1[C@@H](C[C@H]3C)C1(C)C [Compound 750, Ingenol 3-(N-allyl-N-methyl-carbamate)]
[1]
  pEC50: > 7.70
[2]
  pEC50: < 3.46

## C#CCN(C)C(=O)O[C@H]1C(C)=C[C@]23C(=O)[C@@H](C=C(CO)[C@@H](O)[C@]12O)[C@H]1[C@@H](C[C@H]3C)C1(C)C [Compound 751, Ingenol 3-(N-methyl-N-prop-2-ynyl-carbamate)]
[1]
  pEC50: 7.00 to 7.70
[2]
  pEC50: < 3.46
